Assay results taken from ChEMBL document CHEMBL1133323, “Antitumor agents. Part 202: novel 2'-amino chalcones: design, synthesis and biological evaluation” (2000).
In brackets after ≈: the same amount, converted by molar mass.

Experiments:
A549 = assay: In vitro cytotoxicity against human lung carcinoma (A-549) cell line; format: functional; conditions: read-out: ED50 (the source's name)
HCT-8 = assay: In vitro cytotoxicity against human ileocecal carcinoma (HCT-8) cell line; format: functional; conditions: for EC50: read-out: ED50 (the source's name)
HOS = assay: In vitro cytotoxicity against human osteosarcoma (Hos) cell line; format: functional; conditions: for EC50: read-out: ED50 (the source's name)
1A9 = assay: In vitro cytotoxicity against human ovarian cancer (IA9) cell line; format: functional; conditions: read-out: ED50 (the source's name)
KB [1] = assay: In vitro cytotoxicity against human P-glycoprotein-expressing epidermoid carcinoma of the nasopharynx (KB-VIN) cell line; format: functional; conditions: read-out: ED50 (the source's name)
KB [2] = assay: In vitro cytotoxicity against human epidermoid carcinoma of the nasopharynx (KB) cell line; format: functional; conditions: read-out: ED50 (the source's name)
MCF7 = assay: In vitro cytotoxicity against human breast cancer (MCF-7) cell line; format: functional; conditions: read-out: ED50 (the source's name)
SK-MEL-2 = assay: In vitro cytotoxicity against human melanoma (SKMEL-2) cell line; format: functional; conditions: for EC50: read-out: ED50 (the source's name)
U-87 MG [3] = assay: (§1) In vitro cytotoxicity against human glioblastoma (U-87-MG) cell line; format: functional, U-87MG ATCC; design: concentration or dose not given beside the values
U-87 MG [4] = assay: as §1; format: functional, U-87MG ATCC; conditions: read-out: ED50 (the source's name)

| SMILES | EC50 (A549) | EC50 (HCT-8) | EC50 (HOS) | EC50 (1A9) | EC50 (KB [1]) | EC50 (KB [2]) | EC50 (MCF7) | EC50 (SK-MEL-2) | Inhibition (U-87 MG [3]) | EC50 (U-87 MG [4]) | Inhibition (HCT-8) | Inhibition (HOS) | Inhibition (SK-MEL-2) |
| --- | --- | --- | --- | --- | --- | --- | --- | --- | --- | --- | --- | --- | --- |
| Nc1cc2c(cc1C(=O)/C=C/c1ccc(F)cc1)OCO2 | 4.2 µg/mL (≈ 14.7 µM) | 6.5 µg/mL (≈ 22.8 µM) | 6 µg/mL (≈ 21 µM) | 3.5 µg/mL (≈ 12.3 µM) | 2.2 µg/mL (≈ 7.71 µM) | 3.1 µg/mL (≈ 10.9 µM) | 5.1 µg/mL (≈ 17.9 µM) | 9 µg/mL (≈ 31.5 µM) | 49% | > 10 µg/mL | – | – | – |
| Cc1ccccc1/C=C/C(=O)c1ccccc1N | 3.5 µg/mL (≈ 14.7 µM) | 9.8 µg/mL (≈ 41.3 µM) | 4 µg/mL (≈ 16.9 µM) | 1.2 µg/mL (≈ 5.06 µM) | 1.25 µg/mL (≈ 5.27 µM) | 1.35 µg/mL (≈ 5.69 µM) | 6.1 µg/mL (≈ 25.7 µM) | 5.1 µg/mL (≈ 21.5 µM) | 34% | > 10 µg/mL | – | – | – |
| COc1cccc(/C=C/C(=O)c2ccc3c(c2)OCO3)c1 | 18.5 µg/mL (≈ 65.5 µM) | > 20 µg/mL | > 20 µg/mL | 15 µg/mL (≈ 53.1 µM) | 14 µg/mL (≈ 49.6 µM) | 18.7 µg/mL (≈ 66.2 µM) | 19 µg/mL (≈ 67.3 µM) | > 20 µg/mL | 20% | > 20 µg/mL | 28% | 42% | 42% |
| COc1cccc(/C=C/C(=O)c2ccccc2N)c1 | 1.2 µg/mL (≈ 4.74 µM) | 4.5 µg/mL (≈ 17.8 µM) | 2 µg/mL (≈ 7.9 µM) | 0.8 µg/mL (≈ 3.16 µM) | 0.3 µg/mL (≈ 1.18 µM) | 0.65 µg/mL (≈ 2.57 µM) | 1.3 µg/mL (≈ 5.13 µM) | 3.5 µg/mL (≈ 13.8 µM) | – | 5.1 µg/mL (≈ 20.1 µM) | – | – | – |
| Nc1cc2c(cc1C(=O)/C=C/c1ccccc1F)OCO2 | 2 µg/mL (≈ 7.01 µM) | 3 µg/mL (≈ 10.5 µM) | 4 µg/mL (≈ 14 µM) | 1.5 µg/mL (≈ 5.26 µM) | 0.95 µg/mL (≈ 3.33 µM) | 1.5 µg/mL (≈ 5.26 µM) | 2.6 µg/mL (≈ 9.11 µM) | 6.5 µg/mL (≈ 22.8 µM) | – | 7 µg/mL (≈ 24.5 µM) | – | – | – |
| Cc1ccccc1C1OC1C(=O)c1ccccc1N (stereo unspecified) | 17 µg/mL (≈ 67.1 µM) | > 20 µg/mL | > 20 µg/mL | 12.5 µg/mL (≈ 49.3 µM) | 11.5 µg/mL (≈ 45.4 µM) | 15.5 µg/mL (≈ 61.2 µM) | 19.5 µg/mL (≈ 77 µM) | > 20 µg/mL | 28% | > 20 µg/mL | 41% | 47% | 45% |
| COc1cccc(/C=C/C(=O)c2cc3c(cc2N)OCO3)c1 | 0.45 µg/mL (≈ 1.51 µM) | 1.5 µg/mL (≈ 5.05 µM) | 2.4 µg/mL (≈ 8.07 µM) | 0.35 µg/mL (≈ 1.18 µM) | 0.3 µg/mL (≈ 1.01 µM) | 0.52 µg/mL (≈ 1.75 µM) | 0.48 µg/mL (≈ 1.61 µM) | 2.3 µg/mL (≈ 7.74 µM) | – | 8 µg/mL (≈ 26.9 µM) | – | – | – |
| COc1cccc(C2OC2C(=O)c2cc3c(cc2N)OCO3)c1 (stereo unspecified) | 2 µg/mL (≈ 6.38 µM) | 2.1 µg/mL (≈ 6.7 µM) | 4.5 µg/mL (≈ 14.4 µM) | 1.2 µg/mL (≈ 3.83 µM) | 1.3 µg/mL (≈ 4.15 µM) | 2 µg/mL (≈ 6.38 µM) | 1.1 µg/mL (≈ 3.51 µM) | 9.8 µg/mL (≈ 31.3 µM) | – | 5 µg/mL (≈ 16 µM) | – | – | – |
| Nc1cc2c(cc1C(=O)C1OC1c1ccccc1F)OCO2 (stereo unspecified) | 3.5 µg/mL (≈ 11.6 µM) | 4.8 µg/mL (≈ 15.9 µM) | 4 µg/mL (≈ 13.3 µM) | 1.85 µg/mL (≈ 6.14 µM) | 2.3 µg/mL (≈ 7.63 µM) | 15.4 µg/mL (≈ 51.1 µM) | 2.3 µg/mL (≈ 7.63 µM) | 9.5 µg/mL (≈ 31.5 µM) | – | 9 µg/mL (≈ 29.9 µM) | – | – | – |
